Structures can show the parent of a compound that is named as a salt. Where two headings read alike, the source gives them in different places.
Tests used:
in vitro [1] = conditions: rat, Cell Toxicity IC50 (uM) [cFib assay]
in vitro [2] = conditions: rat
[3] = system: LPS-induced microglia activation; assay: Image-based assay of LPS-induced microglia activation (HTS and dose response); type: cell-based, rat; conditions: Rattus norvegicus, Microglia; for inhibition at 10 µM: read-out: LPS % inhibition
[4] = system: fibrin-induced microglia activation; assay: Image-based assay of fibrin-induced microglia activation (HTS and dose response); type: cell-based, rat; conditions: for IC50 / inhibition at 10 µM: Rattus norvegicus, Microglia; for inhibition at 10 µM: read-out: Fibrin % inhibition
primary rat microglia [5] = assay: Cell toxicity (dead cells, size <150 μm2) in LPS assay; conditions: for LPS % cell toxicity: primary microglia HTS, LPS stimulation, decreased size (<150 μm^2) as marker of toxicity; for IC50: read-out: Cell Toxicity IC50 (uM) [LPS assay], LPS assay
[6] = system: fibrin- and LPS-induced microglia activation; assay: cells; type: cell-based, rat; conditions: for inhibition at 10 µM: Rattus norvegicus
primary rat microglia [7] = assay: Cell toxicity (dead cells, size <150 μm2) in coated fibrin (cFib) assay; conditions: for Fibrin % cell toxicity: primary microglia HTS, fibrin stimulation, decreased size (<150 μm^2) as marker of toxicity; for IC50: Rattus norvegicus, Microglia, read-out: dead_IC50 (uM), Table 7, fibrin or LPS assay not specified;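 as to Fibrin % cell toxicity: share of dead cells sized under 150 µm2 at 10 µM in fibrin-stimulated microglia HTS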
[8] = 48 h, Table 1, dose response 0.001-20 μM, triplicates, primary rat microglia, 48 h, read-out: LPS IC50
[9] = 48 h, primary microglia HTS, LPS stimulation, increased cell size (>800 μm^2) as marker of activation
[10] = LPS-induced microglia activation, dose response, read-out: LPS IC50 (uM) (Suppl. Table 7)
[11] = dose response, LPS-induced microglia activation, read-out: LPS IC50
[12] = 48 h, Table 1, dose response 0.001-20 μM, triplicates, primary rat microglia, 48 h, read-out: Fibrin IC50
[13] = dose response, fibrin-induced microglia activation, read-out: Fibrin IC50
[14] = fibrin-induced microglia activation, dose response, read-out: Fibrin IC50 (uM) (Suppl. Table 7)
[15] = primary microglia HTS, fibrin stimulation, increased cell size (>800 μm^2) as marker of activation
[16] = HTS of 1907 compounds, quadrant by fibrin and LPS inhibition
[17] = Microglia, HTS hit classification, read-out: Hit
[18] = hit classification in microglia HTS, read-out: Cherry-picked Hit (Suppl. Table 7)
[19] = quadrant by fibrin and LPS inhibition in HTS of 1907 compounds
[20] = Table 3, read-out: LPS IC50 (uM) (Suppl. Table 7)
[21] = Table 3, read-out: Fibrin IC50 (uM) (Suppl. Table 7)
[22] = Microglia, Table 3, read-out: Cherry-picked Hit (Suppl. Table 7)

Structure (SMILES) | IC50 (in vitro [1]; cFib assay) [µM] | IC50 (in vitro [2]) [µM] | IC50 [3, 8] [µM] | inhibition at 10 µM [3, 9] [%] | IC50 [3, 10] [µM] | IC50 [3, 11] [µM] | IC50 [4, 12] [µM] | IC50 [4, 13] [µM] | IC50 [4, 14] [µM] | inhibition at 10 µM [4, 15] [%] | LPS % cell toxicity (primary rat microglia [5]) [%] | Quadrant (FIG. 5b) [6, 16] | inhibition at 10 µM [6, 17] [%] | inhibition at 10 µM [6, 18] [%] | Quadrant (FIG. 5b) ([6]; Table 1, screen at 10 μM) | Quadrant (FIG. 5b) [6, 19] | Fibrin % cell toxicity (primary rat microglia [7]) [%] | IC50 (in vitro [1]; Table 3) [µM] | IC50 [3, 20] [µM] | IC50 [4, 21] [µM] | further results
CN(C)CCc1c[nH]c2ccc(CS(=O)(=O)N3CCCC3)cc12 [Almotriptan, reference compound] | > 20 | > 20 | > 20 | 85 | > 20 | > 20 | > 20 | > 20 | > 20 | 101 | 1 | Q2 | > 50 | > 50 | Q2 | Q2 | 2 | – | – | – | –
O=C(OOC(=O)c1ccccc1)c1ccccc1 [Benzoyl peroxide, reference compound] | > 20 | > 20 | > 20 | 82 | > 20 | > 20 | 20 | 20 | 20 | 75 | 2 | Q2 | > 50 | > 50 | Q2 | Q2 | 1 | – | – | – | –
CN(C)CCCOc1nn(Cc2ccccc2)c2ccccc12 [Benzydamine hydrochloride, reference compound] | 20 | 8 | 3 | 102 | 3 | 3 | 6 | 6 | 6 | 75 | 6 | Q2 | > 50 | > 50 | Q2 | Q2 | 1 | – | – | – | –
S=C=NCc1ccccc1 [Benzyl isothiocyanate, reference compound] | > 20 | > 20 | > 20 | 68 | > 20 | > 20 | 10 | 10 | 10 | 77 | 2 | Q2 | > 50 | – | Q2 | Q2 | 2 | > 20 | > 20 | 10 | Fibrin Selectivity [4]: 2; Fibrin Selectivity (LOG10) [4]: 0.29; IC50 (primary rat microglia [5]): > 20 µM; inhibition at 10 µM [6, 22]: > 50%; Quadrant (FIG. 5b) ([6]; Table 3, screen at 10 μM): Q2
CCCCC(=O)O[C@]1(C(=O)CO)[C@@H](C)C[C@H]2[C@@H]3CCC4=CC(=O)C=C[C@]4(C)[C@@]3(F)[C@@H](O)C[C@@]21C [Betamethasone valerate, reference compound] | > 20 | > 20 | > 20 | 55 | > 20 | > 20 | 20 | 20 | 20 | 69 | 1 | Q2 | > 50 | > 50 | Q2 | Q2 | 1 | – | – | – | –
C[C@H]1C[C@H]2[C@@H]3CCC4=CC(=O)C=C[C@]4(C)[C@@]3(F)[C@@H](O)C[C@]2(C)[C@@]1(O)C(=O)CO [Betamethasone, reference compound] | > 20 | > 20 | 0.01 | 94 | 0.01 | 0.01 | < 0.001 | < 0.001 | < 0.001 | 103 | – | Q2 | > 50 | – | Q2 | Q2 | – | > 20 | 0.01 | < 0.001 | IC50 ([3]; Table 7, read-out: LPS_IC50): 0.002 µM; inhibition at 10 µM ([3]; primary HTS, 10 μM, LPS-stimulated primary microglia): -9%; IC50 ([4]; Table 7, read-out: fib_IC50): 0.002 µM; inhibition at 10 µM ([4]; primary HTS, 10 μM, fibrin-stimulated primary microglia): -4%; IC50 (primary rat microglia [5]): > 20 µM; inhibition at 10 µM [6, 22]: > 50%; Quadrant (FIG. 5b) ([6]; Table 2, screen at 10 μM): Q2; Quadrant (FIG. 5b) ([6]; Table 3, screen at 10 μM): Q2; Quadrant (FIG. 5b) ([6]; primary HTS, 10 μM): Q4; IC50 (primary rat microglia [7]): 2.08 µM
C[C@@H]1C[C@H]2[C@@H]3CCC4=CC(=O)C=C[C@]4(C)[C@@]3(F)[C@@H](O)C[C@]2(C)[C@@]1(O)C(=O)CO [Dexamethasone, reference compound] | > 20 | > 20 | > 20 | – | > 20 | > 20 | 15 | 15 | 15 | – | – | Q3 | > 50 | > 50 | Q3 | – | – | – | – | – | IC50 ([3]; Table 7, read-out: LPS_IC50): 0.002 µM; IC50 ([4]; Table 7, read-out: fib_IC50): 0.002 µM; Quadrant (FIG. 5b) ([6]; Table 2, screen at 10 μM): Q3
CC1(C)O[C@@H]2C[C@H]3[C@@H]4C[C@H](F)C5=CC(=O)C=C[C@]5(C)[C@H]4[C@@H](O)C[C@]3(C)[C@]2(C(=O)CO)O1 [Flunisolide, reference compound] | > 20 | > 20 | < 0.001 | 101 | < 0.001 | < 0.001 | < 0.001 | < 0.001 | < 0.001 | 104 | – | Q2 | > 50 | > 50 | Q2 | Q2 | – | – | – | – | –
CC[C@@]1(O)C(=O)OCc2c1cc1n(c2=O)Cc2cc3c([N+](=O)[O-])cccc3nc2-1 [Rubitecan, reference compound] | > 20 | > 20 | 9 | 30 | 9 | 9 | 2 | 2 | 2 | 73 | – | Q3 | > 50 | – | Q3 | Q3 | – | > 20 | 9 | 2 | IC50 (primary rat microglia [5]): > 20 µM; inhibition at 10 µM [6, 22]: > 50%; Quadrant (FIG. 5b) ([6]; Table 3, screen at 10 μM): Q3
CC[C@@H](C(=O)[C@@H](C)[C@@H](O)[C@H](C)[C@@H]1O[C@@H]([C@@H](CC)C(=O)O)CC[C@@H]1C)[C@H]1O[C@]2(C=C[C@@H](O)[C@]3(CC[C@@](C)([C@H]4CC[C@](O)(CC)[C@H](C)O4)O3)O2)[C@H](C)C[C@@H]1C [Salinomycin, sodium, reference compound] | > 20 | – | 2 | 101 | 2 | 2 | 2 | 2 | 2 | 100 | 1 | Q2 | > 50 | > 50 | Q2 | Q2 | 3 | – | – | – | Activity ([6]; Table 7, fib = fibrin, LPS, tox = toxicity, sodium): fib/LPS; IC50 (primary rat microglia [7]): 3.86 µM
C[C@]12C=CC(=O)C=C1CC[C@H]1[C@@H]3C[C@@H](O)[C@](O)(C(=O)CO)[C@@]3(C)C[C@H](O)[C@@]12F [Triamcinolone, reference compound] | > 20 | > 20 | 0.4 | 99 | 0.4 | 0.4 | 0.04 | 0.04 | 0.04 | 107 | – | – | > 50 | – | Q2 | Q2 | – | > 20 | 0.4 | 0.04 | inhibition at 10 µM ([3]; primary microglia HTS, 10 μM, LPS-stimulated, cell size >800 μm^2 as marker of activation): -14%; Fibrin Selectivity [4]: 10; Fibrin Selectivity (LOG10) [4]: 1.00; inhibition at 10 µM ([4]; primary microglia HTS, 10 μM, fibrin-stimulated, cell size >800 μm^2 as marker of activation): -2%; IC50 (primary rat microglia [5]): > 20 µM; inhibition at 10 µM [6, 22]: > 50%; Quadrant (FIG. 5b) ([6]; Table 3, screen at 10 μM): Q2
